The test system of one assay is CA1 neurons. As to the kind of experiment: mEPSC recordings from shRNA-expressing CA1 neurons in hippocampal organotypic slice cultures. The assay is classed as cell-based, mouse. As to conditions: Shank3 knock down neurons; overnight 4 μg/ml SC79. On the procedure:
Organotypice slices and cell cultures were transferred from growth medium to an interface chamber containing ACSF equilibrated with 95% O2/5% CO2 containing the following (in mM): 124 NaCl, 2.7 KCl, 2 CaCl2, 1.3 MgCl2, 26 NaHCO3, 0.4 NaH2PO4, 18 glucose, 4 ascorbate. Recordings were performed with ACSF in a recording chamber at a temperature of 35° C. at a perfusion rate of 1-2 ml/min. Neurons were visually identified with infrared video microscopy using an upright microscope equipped with a 40× objective (Olympus, Tokyo, Japan). Patch electrodes (3-5 MΩ) were pulled from borosilicate glass tubing. […]
Whole cell patch-clamp recordings were excluded if the access resistance exceeded 13 MΩ and changed more than 20% during the recordings. Data were recorded with a MultiClamp 700B (Molecular Devices) amplifier, filtered at 0.2 kHz, and digitised at 10 kHz. Data were acquired and analysed with Clampex 10.0, Clampfit 10.0 (Molecular Devices) and the Mini Analysis Program (Synaptosoft, Decatur, Ga.). […]
Given that SC79 and TG003 were able to recover spine numbers in Shank3 knock down neurons, the reinstatement of synaptic transmission was examined next. First, miniature excitatory postsynaptic currents (mEPSCs) were recorded from shRNA-expressing CA1 neurons in hippocampal organotypic slice cultures. […]

The test system of assay [1] is IGF-signaling impaired zebrafish model. As to conditions: cited from earlier work.
The test system of assay [2] is Shank3^ΔC/ΔC mice. As to the kind of experiment: Spontaneous self-grooming. Format: in vivo, mouse. To be noted: 10 minute interval; TG003-treated Shank3^ΔC/ΔC mice. The protocol:
To monitor spontaneous self-grooming, mice were placed in a clean cage (identical to the home cage), with minimal bedding to discourage digging, which was then placed in the sound-proof box for video monitoring. Animals were habituated in the new cage for 10 minutes before self-grooming was monitored during another 10 minutes. Cumulative grooming time was reported for this second 10 minute period.

Assay [3] concerns Shank3^ΔC/ΔC mice. As to the kind of experiment: Three-chamber social interaction task. The assay is classed as in vivo, mouse. On the procedure:
The three-chamber social interaction task was performed in a three-chambered arena with transparent walls and retractable doorways to allow mice access to flanking chambers (FIG. 9F). During testing, the arena was placed in a lighted, sound-proof box with no side-biasing features. A video camera was mounted above for recording. The test comprised three phases with different stimuli placed in the side chambers successively between phases. Each stimulus (social or inanimate) was placed within a small wire cage for immobilization while test mice were allowed to freely investigate the stimuli. In Phase 1, identical inanimate objects (inverted ceramic cups with blue stripe) were placed in both side chambers. An intruder mouse (same strain) was introduced in one side chamber as the social stimulus in Phase 2. In Phase 3, a second intruder mouse was placed in the other side chamber (novel social stimulus). Each phase consisted of a 7.5 minute exploration period with 5 minutes in the home cage between phases. The test animal was placed in the center chamber to start the task. Animals were habituated to the arena 24 hours before testing during which time they were allowed to freely explore the entire arena, with empty wire cages in side chambers, for 10 minutes. Social interaction time for a given phase was scored by cumulative social/investigative behaviors, in particular sniffing and actively seeking a stimulus. Proximity to a stimulus without investigation was not counted. Preference index was calculated by subtracting interaction time with one stimulus from that of the other stimulus in the same testing phase then dividing this by the sum of interaction times for both stimuli and converting this to a percentage. Positive scores indicate a preference for the first stimulus in the equation. […]

The subject of the next assay is Akt. As to the kind of experiment: In vivo Akt phosphorylation in Shank3^ΔC/ΔC mice. Also noted: species or system mouse. As to conditions: 30 mg/kg TG003 intraperitoneal. The text has this:
To determine whether the above findings extend to autism spectrum disorder (ASD)-like behaviors, a Shank3-deficient mouse model was generated by ablation of Shank3 exon 21 (FIGS. 8A and 8B) as previously described (Kouser et al., Journal of Neuroscience 33, 18448-18468, 2013; Duffney et al., Cell reports 11, 1400-1413, 2015). To generate Shank3 exon 21-deleted mice, the exon 21 genomic region of Shank3 (2464 bp in size) was replaced by homologous recombination with a loxP-TK_Neo-loxP cassette. The Neo cassette was flanked by a 3 kb 5′ homology arm and a 1.6 kb 3′ homology arm. Linearized targeting vector DNA was electroporated into C57BL6/J ES cells, and G418 resistant ES clones were first screened by nested PCR, and then subjected to Southern blot analysis. For Southern analysis, genomic DNA was digested with restriction enzyme(s), and hybridized with probes positioned outside the 5′ and 3′ homologous regions. Targeted ES clones were used for blastocyst injection, and chimeric males were mated with transgenic Cre-expressing C57B1/6 mice females to remove the neomycin resistance cassette. Animals without the neo cassette were used as F1 mice to establish the Shank3 exon 21-deleted (Shank3^ΔC/ΔC) colony.
The major Shank3 isoforms were absent in the homozygous mice (Shank3^ΔC/ΔC), while faster-migrating, truncated fragments were detected (FIG. 8C).

Structures are written as SMILES. Entries after “also recorded” stand apart in the source; their conditions may differ.

Turning to `CCOC(=O)C1=C(N)Oc2ccc(Cl)cc2C1C(C#N)C(=O)OCC` (centres unmarked) [SC79], the mEPSC frequency result with CA1 neurons was “completely restored mEPSC frequency to control levels”. Further, the habituation learning entry in assay [1] is recorded as “restore habituation learning”.

Consider `CCN1/C(=C/C(C)=O)Sc2ccc(OC)cc21` [TG003, (Z)-1-(3-ethyl-5-methoxy-2,3-dihydrobenzothiazol-2-ylidene)propan-2-one], for which the self-grooming entry in the assay with Shank3^ΔC/ΔC mice [2] is “significantly decreased self-grooming although not to wild type frequency”. Also, in the assay with Shank3^ΔC/ΔC mice [3] (phase 1 or phase 2, TG003-treated mice), the total distance travelled entry is recorded as “no change from wild type in total distance travelled”. The “preference for social interaction (S1 versus O1 interaction times)” value in the assay with Shank3^ΔC/ΔC mice [3] (phase 2, 30 mg/kg TG003 i.p. 6-8 hours before testing, 30 mg/kg) is “recovered normal preference for social interaction; also recorded: corrected”. Also, the “social investigation after delay” value in the assay on Shank3^ΔC/ΔC mice [3] (phase 2, 72 hours after TG003 treatment) was “maintained 72 hours after treatment”. Also, the “time spent in S1 chamber” value in the assay with Shank3^ΔC/ΔC mice [3] (phase 2, TG003-treated Shank3^ΔC/ΔC mice) was “restores the time spent in the Si chamber to wild type levels”. Moreover, the “Akt phosphorylation in vivo” value with Akt is recorded as “increases Akt phosphorylation”.

The record behind these values is patent US20180296537A1, “METHODS AND COMPOSITIONS FOR DIAGNOSING, TREATING, AND MONITORING TREATMENT OF SHANK3 DEFICIENCY ASSOCIATED DISORDERS” (Novartis AG, priority 2015, published 2018).
